Assay results as given in patent US5994323A (priority 1997, dated 1999).

Key:
[1] = test system: zinc precipitated Aβ; assay: Chelating ability: washing of zinc-aggregated synthetic Aβ on nylon membrane, anti-Aβ 6E10 / ECL; assay type: biochemical; details: 10 ng synthetic Aβ aggregated with 25 μM ZnCl; wash with TBS containing 2 μM chelator; 100% for TBS alone
Procedure: Samples of 10 ng synthetic Aβ were placed in microtitre wells and caused to aggregate by the addition of 25 μM ZnCl. The aggregates were then transferred to a 0.2 μm nylon membrane by filtration. […] The membrane was fixed, probed with the anti Aβ monoclonal antibody 6E10 and developed for exposure to ECL-film. The transmittance of the ECL-film was measured and the relative signal strength calculated based on 100% for TBS alone.

[2] = Solubility in water / aqueous solutions; assay type: physicochemical
[3] = 1H NMR study of the interaction of vitamin B12 with clioquinol glucuronide; assay type: binding; details: 2.6 mM vitamin B12 + 10 mM clioquinol glucuronide, buffered water pH 6.5, 20° C.
Procedure: Three different solutions were prepared and their ^1 H NMR spectra were recorded in a DRX 400 MHz spectrophotometer at 20° C. Solution a) contained free vitamin B12 (hydroxycobalamin) in a concentration of 2.6 mM.
In FIGS. 1A-1C the spectra of the three solutions a, b and c are presented for the aromatic region (5.5-9.8 ppm). The differences are quite small but obvious in the expansion shown of FIGS. 2A-2C and FIGS. 3B-3C respectively.

[4] = injected preparations, dosages of 10-20 mg/kg; cited from earlier work
[5] = test system: Aβ; assay: Resolubilization of amyloid aggregates in Alzheimer's disease brain homogenates (Western blot of supernatants); assay type: biochemical, human; details: frontal lobe neocortex, clioquinol/PBS at 100%, 10% and 1% (100%=800 nM)
Procedure: Brain specimens were obtained for which a histopathological diagnosis of Alzheimer's disease was confirmed.
The homogenates were centrifuged at 150,000 xg for thirty minutes and the supernatants collected and held on ice (fraction "S"). The pellets were subjected to an identical homogenization and centrifugation regime and the resulting supernatants again collected (fraction "P").
1 ml of each supernatant was treated with 200 μl of ice cold 10% TCA to precipitate total protein including Aβ. The resulting pellet was washed once with 100% ethanol and resuspended in 100 μl of TBS (tris 20 mM, NaCl 150 mM, pH 7.4).
7.5 μl of sample (S or P) was boiled for 5 min. with an equal volume of tris-tricine sample buffer containing 4% SDS and loaded onto a Novex pre-cast 10-20% tris-tricine gel followed by Western transfer onto nitrocellulose. Signal for Aβ was detected using mAb WO2 (raised against residues 5-16 of Aβ) and visualized using ECL. The sensitivity of the detection system is 5-10 pg. […]

[6] = test system: zinc precipitated Aβ; assay: Resolubilization of zinc-aggregated Aβ in TBS; assay type: biochemical; details: 2.5 μM Aβ in TBS pH 7.4, 30 μM zinc (43% in solution), then 120 μM clioquinol; 95% soluble before zinc
Procedure: The ability of clioquinol to resolubilize zinc-aggregated Aβ was assessed. A 2.5 μM solution of Aβ in TBS at a pH of 7.4 was prepared. 95% of the Aβ was maintained in a soluble state.

[7] = test system: vitamin B12 ([57Co]-cyanocobalamine); assay: Influence of clioquinol on vitamin B12 in vivo: tissue radioactivity after [57Co]-cyanocobalamine injection; details: mice, clioquinol 50 mg/kg/day injected for three days, then [57Co]-cyanocobalamine, sacrificed after two days, ±SEM
Procedure: After three days, all of the mice were injected with [^57 Co]-cyanocobalamine. After two days, the animals were sacrificed, and the brain, liver and kidney were dissected and counted in a gamma-counter as thousand cpm/g tissue (wet weight)±SEM. The radioactivities in each of the groups are stated in Table 1 below: […]

[8] = Dissolution of clioquinol in n-decane and partition into PBS pH 7.4; assay type: physicochemical
Procedure: The resolubilization of amyloid aggregates by clioquinol was studied. […] The undissolved material was allowed to settle. […] 100 ml of the (light yellow) supernatant was agitated together with 100 ml of PBS pH 7.4 and the phases allowed to separate. The PBS (lower phase) was collected and filtered to remove the residue which formed at the phase interface upon extraction with the organic solvent.

[9] = assumed value; 1:1 mixtures of decane/clioquinol with PBS pH 7.4; cited from earlier work

With `O=C(O)CN(CCN(CC(=O)O)CC(=O)O)CC(=O)O` [EDTA] as the molecule, how does the “Relative signal strength of Aβ remaining on membrane” value [1] read?
The value was 66%.

Which “Solubility in water / aqueous solutions” value [2] does the source give for `COC(=O)[C@H]1O[C@@H](Oc2c(I)cc(Cl)c3cccnc23)[C@H](OC(C)=O)[C@@H](OC(C)=O)[C@@H]1OC(C)=O` [clioquinol glucuronide, methyl (5-chloro-7-iodo-quinolyl-2',3',4'tri-O-acetyl-glucopyranosid)uronate] here?
The value was “soluble in water”.

What about the “Interaction with vitamin B12 (shift of 1H NMR resonances)” value [3] of the same molecule?
Its value is “interaction”.

What does the source list for `Oc1c(I)cc(Cl)c2cccnc12` [clioquinol, 5-chloro-7-iodo-8 hydroxyquinoline]?
Solubility in water / aqueous solutions [2]: cannot be dissolved in aqueous solutions; Concentration in the brain [4]: ~20 μl/ml; Solubilization of Aβ from Alzheimer's disease brain homogenate [5]: effective in promoting the solubilization of Aβ; Soluble Aβ after addition to zinc precipitated Aβ [6]: 70%; Radioactivity in brain ([7]; control 9.4 ± 0.9): 8.4 ± 1.5 thousand cpm/g tissue (wet wei; Radioactivity in liver ([7]; control 97 ± 8): 85 ± 21 thousand cpm/g tissue (wet wei; Radioactivity in kidney ([7]; control 895 ± 207): 252 ± 61 thousand cpm/g tissue (wet wei; Fraction of clioquinol dissolved in n-decane ([8]; 5.3 g suspended in 200 ml n-decane): 2%; Concentration of clioquinol in the PBS ([8]; PBS pH 7.4 extract of the n-decane supernatant, calculated from assumed 2% dissolution and partitioning coefficient): 800 nM; Partitioning coefficient with PBS [9]: 1/1750
